Data published in the supplement of paper PMC3974653.
Structures can show the parent of a compound that is named as a salt.

System: MTT (mouse pheochromocytoma)
Test: IC50 of cell viability (ATP content)
Details: (24 or 48 h)
How it was run: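 Cells of the MTT mouse pheochromocytoma line, 5 µl per well at 200,000 cells/ml, were grown overnight at 37°C, 5% CO2 in white 1536-well plates with DMEM, 5% FBS and 1% horse serum. Pintool transfer then delivered 23 nl of library compound in DMSO, giving 8 final concentrations from 0.5 nM to 46 µM, for an exposure of 24 or 48 hrs. Luminescence from CellTiter-Glo was read after 15 minutes and referenced to positive-control wells (100%) and DMSO wells (0%). IC50 was calculated with a four-parameter logistic fit.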

SMILES | IC50 of cell viability [µM]
O=C(O)[C@H]1CN(C/C=C/P(=O)(O)O)CCN1 [MIDAFOTELUM] | > 46
CC1=NC=C2C\N=C(\C3=CC=CC=C3F)C4=CC(=CC=C4[N]12)Cl [MIDAZOLAM HYDROCHLORIDE] | > 46
COP(=O)(OC)OC(c1ccc(Cl)cc1)P(=O)(OC)OC (configuration not stated) [MIFOBATUM] | > 46
OCCN1CC(O)C(O)C(O)C1CO (configuration not stated) [MIGLITOL] | > 46
CCCCN1CC(O)C(O)C(O)C1CO (configuration not stated) [MIGLUSTAT] | > 46
CCCCCCCCCCCCCCCCOP(=O)([O-])OCC[N+](C)(C)C [MILTEFOSINE] | > 46
Cl.CN(C)C\1[C@@H]2C[C@H]3CC4=C(C(=CC=C4N(C)C)O)C(=O)\C3=C(O)\[C@]2(O)C(=O)\C(=C1O)C(N)=O (some centres not stated) [MINOCYCLINE HYDROCHLORIDE] | > 46
Nc1cc(N2CCCCC2)nc(N)[n+]1[O-] [MINOXIDIL] | > 46
O[C@@H]([C@H](O)[C@H](O)CBr)[C@H](O)CBr [MITOBRONITOL] | > 46
COc1cc2c(cc1OC)[C@@H](Cc1cc(OC)c(OC)c(OC)c1)[N+](C)(CCCOC(=O)CC/C=C/CCC(=O)OCCC[N+]1(C)CCc3cc(OC)c(OC)cc3[C@H]1Cc1cc(OC)c(OC)c(OC)c1)CC2 (some centres not stated) [MIVACURIUM CHLORIDE] | > 46
O=C(NCCN1CCOCC1)c1ccc(Cl)cc1 [MOCLOBEMIDE] | > 46
NC(=O)C[S+]([O-])C(c1ccccc1)c1ccccc1 (configuration not stated) [MODAFINIL] | > 46
CCCCCCCC(=O)OCC(O)CO (configuration not stated) [MONOCTANOIN] | > 46
Cc1ncc(C[n+]2csc(CCOP(=O)(O)O)c2C)c(N)n1 [MONOPHOSPHOTHIAMINUM] | > 46
O=C(O)C(O)C(O)C(O)C(O)C(=O)O (configuration not stated) [MUCIC ACID] | > 46
C/C(=C\C(=O)OCCCCCCCCC(=O)O)C[C@@H]1OC[C@H](C[C@@H]2O[C@H]2[C@@H](C)[C@H](C)O)[C@@H](O)[C@H]1O [MUPIROCIN] | > 46
CCCCCCCCCCCCCCNCCO [MYRALACTUM] | > 46
CO[C@@H]1[C@@H]([C@H](C)[C@@H]2O[C@@]3(CC[C@@](C)([C@H]4CC[C@@](C)([C@H]5O[C@H]([C@H]6O[C@](C)(O)[C@H](C)C[C@@H]6C)C[C@H]5O[C@H]5C[C@@H](OC)[C@H](OC)[C@@H](C)O5)O4)O3)C[C@@H](O)[C@@H]2C)O[C@@](O)(CC(=O)[O-])[C@H](C)[C@H]1OC [Maduramicin ammonium] | > 46
NCc1ccc([S+](N)(=O)[O-])cc1 [Mafenide hydrochloride] | > 46
CCOC(=O)CC(SP(=S)(OC)OC)C(=O)OCC (configuration not stated) [Malathion] | > 46
O=C(O)/C=C/C(=O)Nc1ccc([S+](=O)([O-])Nc2nccs2)cc1 [Maleilsulfatiazol] | > 46

SMILES | IC50 of cell viability [µM]
OCC1OC(OC2C(CO)OC(OC3C(CO)OC(O)C(O)C3O)C(O)C2O)C(O)C(O)C1O (configuration not stated) [Maltotriose] | > 46
O=C1OC2C(O)C(O)OC2C1O (configuration not stated) [Mannuronic acid lactone] | > 46
C=C1/C(=C\C=C2/CCC[C@@]3(C)[C@@H]([C@H](C)OCCC(C)(C)O)CC[C@@H]23)C[C@@H](O)C[C@@H]1O [Maxacalcitol] | > 46
CCOC(=O)c1c(C)n(C)c2ccc(O)cc12 [Mecarbinate] | > 46
COC(=O)[C@@H](N)CS [Mecisteina] | > 46
CN(C)CCOC(=O)COc1ccc(Cl)cc1 [Meclofenoxate hydrochloride] | > 46
CC/1=N/C2=CC=CC=C2C(=O)N1C3=C(Cl)C=CC=C3 [Mecloqualone] | > 46
C/C1=C2/N=C(C=C3N=C(/C(C)=C4\[N-][C@@H]([C@H](CC(N)=O)[C@]4(C)CCC(=O)NC[C@@H](C)OP(=O)([O-])O[C@@H]4[C@@H](O)[C@H](n5cnc6cc(C)c(C)cc65)O[C@@H]4CO)[C@@]4(C)N=C1[C@H](CCC(N)=O)[C@@]4(C)CC(N)=O)[C@H](CCC(N)=O)C3(C)C)[C@@H](CCC(N)=O)[C@@]2(C)CC(N)=O.[CH3-].[Co+3] [Mecobalamin] | > 46
CN1CCN=C(c2ccccc2)c2cc(Cl)ccc21 [Medazepam] | > 46
Cc1cccc(C(C)c2cnc[nH]2)c1C (configuration not stated) [Medetomidine hydrochloride] | > 46
CC(=O)C1(O)CCC2C3CC(C)C4=CC(=O)CCC4(C)C3CCC21C (configuration not stated) [Medroxyprogesterone] | > 46
C[C@H]/1C[C@H]2[C@H]3CC[C@@H](C(C)=O)[C@]3(C)C[C@@H](O)[C@@H]2[C@]4(C)CCC(=O)\C=C14 [Medrysone] | > 46
CC(=O)O[C@@]1(CC[C@@H]2[C@@H]3\C=C(C)/C4=C/C(=O)CC[C@@]4(C)[C@H]3CC[C@@]12C)C(C)=O [Megestrol acetate] | > 46
CNC[C@H](O)[C@@H](O)[C@H](O)[C@H](O)CO [Meglumine] | > 46
N[C@@H](Cc1ccc(N(CCCl)CCCl)cc1)C(=O)O [Melphalan] | > 46
C[N+]1(C)CCC[C@H](OC(=O)C(O)(c2ccccc2)c2ccccc2)C1 [Mepenzolate bromide] | > 46
CNC(C)(C)Cc1ccccc1 [Mephentermine hemisulfate] | > 46
CCC1(c2ccccc2)C(=O)NC(=O)N(C)C1=O (configuration not stated) [Mephobarbital] | > 46
[O-][n+]1cccc(CO)c1 [Mepiroxol] | > 46
C[C@H]1C[C@H]2[C@@H]3CCC4=CC(=O)C=C[C@]4(C)[C@H]3C(=O)C[C@]2(C)[C@@]1(O)C(=O)CO [Meprednisone] | > 46

Other lines, results leading:

IC50 of cell viability [µM] | SMILES
> 46 | CCN(CC)C(=O)[C@@]1(c2ccccc2)C[C@@H]1CN [MILNACIPRAN]
> 46 | Cc1cc(-c2ccccc2)nnc1NCCN1CCOCC1.Cl.Cl [MINAPRINE HYDROCHLORIDE]
> 46 | O.O.O=C([O-])[C@H](CC(=O)N1C[C@H]2CCCC[C@H]2C1)Cc1ccccc1.O=C([O-])[C@H](CC(=O)N1C[C@H]2CCCC[C@H]2C1)Cc1ccccc1.[Ca+2] [MITIGLINIDE CALCIUM HYDRATE]
> 46 | CN(c1nccc(O)n1)C1CCN(c2nc3ccccc3n2Cc2ccc(F)cc2)CC1 [MIZOLASTINE]
> 46 | CN(C)C(=O)CCSC(SCCC(=O)[O-])c1cccc(/C=C/c2ccc3ccc(Cl)cc3n2)c1 (configuration not stated) [MK-571]
> 46 | NC1(CCC1)C2=CC=C(C=C2)C3=C(C=C/4C(=N3)\C=C/N5C(=O)N\N=C45)C6=CC=CC=C6 [MK-2206]
> 46 | CCOC(=O)C(CCc1ccccc1)NC(C)C(=O)N1Cc2cc(OC)c(OC)cc2CC1C(=O)O (configuration not stated) [MOEXIPRIL HYDROCHLORIDE]
> 46 | COc1ccc(-c2noc(CC(=O)O)c2-c2ccc(OC)cc2)cc1 [MOFEZOLAC]
> 46 | O=C(CCCN1CCN(c2ccc(F)cc2)CC1)NC1c2ccccc2CSc2ccccc21 (configuration not stated) [MONATEPIL MALEATE]
> 46 | CC(C)(O)c1ccccc1CC[C@H](SCC1(CC(=O)[O-])CC1)c1cccc(/C=C/c2ccc3ccc(Cl)cc3n2)c1 [MONTELUKAST SODIUM]
> 46 | c1ccc2sc(SN3CCOCC3)nc2c1 [MORPHOLINYLMERCAPTOBENZOTHIAZOLE]
> 46 | CCOc1cc(N)c(Cl)cc1C(=O)NCC1CN(Cc2ccc(F)cc2)CCO1 (configuration not stated) [MOSAPRIDE CITRATE]
> 46 | Cc1nnc(C(C)C)n1C1C[C@H]2CC[C@@H](C1)N2CC[C@H](NC(=O)C1CCC(F)(F)CC1)c1ccccc1 (some centres not stated) [Maraviroc]
> 46 | CN1CCN(c2c(F)cc3c(=O)c(C(=O)O)cn4c3c2OCN4C)CC1 [Marbofloxacin]
> 46 | CC(N[NH3+])c1ccccc1 (configuration not stated) [Mebanazine]
> 46 | CCN(CCCCOC(=O)c1ccc(OC)c(OC)c1)[C@@H](C)Cc1ccc(OC)cc1 [Mebeverine hydrochloride]
> 46 | CN1CCc2c(c3ccccc3n2Cc2ccccc2)C1.CN1CCc2c(c3ccccc3n2Cc2ccccc2)C1.O=[S+]([O-])(O)c1cccc2c([S+](=O)([O-])O)cccc12 [Mebhydroline 1,5-naphtalenedisulfonate]
> 46 | CN(C)[C@H]\1[C@@H]2[C@@H](O)[C@@H]\3C(=C)C4=C(Cl)C=CC(=C4C(=O)C3=C(\O)[C@@]2(O)C(=O)\C(=C1O)C(N)=O)O.OC(=O)C5=C(O)C=CC(=C5)[S+](O)([O-])=O [Meclocycline sulfosalicylate]
> 46 | Cc1ccc(Cl)c(Nc2ccccc2C(=O)[O-])c1Cl.O.[Na+] [Meclofenamic acid sodium salt monohydrate]
> 46 | Cc1cccc(CN2CCN([C@@H](c3ccccc3)c3ccc(Cl)cc3)CC2)c1 [Meclozine dihydrochloride]
> 46 | Cc1cccc(Nc2ccccc2C(=O)O)c1C [Mefenamic acid]
> 46 | Cc1cnc(NC(=O)C2C(=O)c3ccccc3[S+](=O)([O-])N2C)s1 (configuration not stated) [Meloxicam]
> 46 | CC1(S(=O)(=O)[O-])CC(=O)c2ccccc2C1=O (configuration not stated) [Menadione sodium bisulfite]
> 46 | COc1ccc(C(=O)CCC(=O)O)c2ccccc12 [Menbutone]
> 46 | COc1ccccc1OCC1CNC(=O)O1 (configuration not stated) [Mephenoxalone]
> 46 | Cc1ccc2c(n1)Oc1ccc(C(C)C(=O)OCC(=O)N(C)C)cc1C2 (configuration not stated) [Mepranoprofen arbamel]
